The subject of data set [1] is (+)-MK801 binding site of the ionotropic NMDA receptor. Briefly: (3H)-(+)-MK801 receptor bonding test on rat cerebral membrane homogenates. The settings on record: 1 nmol/l (3H)-(+)-MK801, rat brain membrane homogenate; for Percentage inhibition of (3H)-(+)-MK801 binding at 10 μM: 10 μmol/l compound, triple determinations; for Ki: calculated from IC50 by Cheng-Prusoff equation. The protocol:
Research to determine the NMDA antagonistic effect of each compound in general formula I was carried out on cerebral membrane homogenates (homogenate of rat brain without cerebellum, pons and medulla oblongata taken from male Wistar rats (Charles River, Sulzfeld, Germany)).
For this purpose, after separating the cerebellum, pons and medulla oblongata, freshly prepared rat brains were macerated in 50 mmol/l of tris/HCl (pH 7.7) with a Polytron homogeniser (model PT3000, Kinematika AG, Littau, Switzerland) at 6000 revolutions per minute (rpm) for 1 minute with ice cooling and centrifuged for 15 minutes at 4° C. and 60,000 g. After decanting and discarding the supernatant, again placing in 50 mmol/l of tris/HCl (pH 7.7) and macerating the membrane pellet with a homogeniser at 2000 rpm for 1 minute, it was centrifuged again for 15 minutes at 4° C. and 60,000 g. The supernatant was again discarding and the membrane pellet homogenised (2000 rpm for 1 minute) in 50 mmol/l of tris/HCl (pH 7.7) and frozen in aliquots at −70° C.
For the receptor bonding test, each aliquot was defrosted and then centrifuged for 15 minutes at 4° C. and 60,000 g. After decanting and discarding the supernatant, the membrane pellet was taken up with bonding test buffer and homogenised (2000 rpm for 1 minute). The bonding test buffer was 5 mmol/l tris/HCl (pH 7.7) supplemented with 30 μmol/l of glycine and 100 μmol/l of glutamic acid.
1 nmol/l of (^3H)-(+)-MK801 ((5R, 10S)-(+)-5-methyl-10,11-dihydro-5H-dibenzo(a,d)cycloheptane-5,10-imine was used as a radioactively marked ligand (NET-972, NEN, Cologne Germany). The proportion of unspecific bonding was determined in the presence of 10 μmol/l of non-radioactively marked (+)-MK801 (RBI/Sigma, Deisenhofen, Germany). In further batches, each of the compounds of general formula I were added in series of concentrations and the displacement of the radioactive ligand out of its specific bond to the NMDA receptor determined. All the batches were subjected to triple determinations. The batches were each incubated for 40 minutes at 25° C. in a water bath and then harvested for determination of the radioactive ligand bound to the cerebral membrane homogenate by means of filtration through glass-fibre filters (GF/B) (Whatman GF/B, Hassel, Munich, Germany). The radioactivity retained by the glass-fibre filter discs was measured in a β counter (Packard TRI-CARB Liquid Scintillation Analyser 2000CA, Packard Instrument, Meriden, Conn. 06450, USA) after adding a scintillator (“Ready Protein” scintillator, Beckmann Coulter GmhH, Krefeld, Germany).
The percentage inhibition of the specific bonding of the ligand (^3H)-(+)-MK801 in the presence of 10 μmol/l of each compound of general formula I resulting from the triple batches is used as a measure of the affinity of the compound for the (+)-MK801 binding site of the ionotropic NMDA receptor. From batches with concentration series of these compounds of general formula I, the IC50 values (concentration of substituted compounds with 50% displacement of radioactive ligand out of its specific bond) were calculated in accordance with the law of mass action using non-linear regression. From these IC50 values, the Kj values were calculated in accordance with the Cheng-Prusoff equation (Y. Cheng, W. H. Prusoff, 1973, Biochem. Pharmacol., 22, pp 3099-3108).

Usually melting point stands for the temperature, or range, at which the solid turns liquid. Broadly, the Ki is the dissociation constant of the complex between target and ligand, obtained from inhibition or displacement. On to `CN(C)C(c1ccccc1)C1CCCCC1(O)CCc1ccccc1F.Cl` (stereo not drawn) [Example 7, 2-(dimethylaminophenylmethyl)-1-[2-(2-fluorophenyl)ethyl]cyclohexanol, hydrochloride], for which the melting point came to 95 °C. Further, in data set [1], the “Percentage inhibition of (3H)-(+)-MK801 binding at 10 μM” value (“Percentage inhibition” for short) amounted to 91% and the Ki was 1.1 µM.

Consider `CN(C)C(c1ccccc1Cl)C1CCCCC1(O)CCc1ccccc1F.Cl` (stereo not drawn) [Example 10, 2-[(2-chlorophenyl)dimethylaminomethyl]-1-[2-(2-fluorophenyl)ethyl]cyclohexanol, hydrochloride], for which the melting point lay in the range of 162 to 163 °C. Further, in data set [1], the “Percentage inhibition” value came out at 102% and the Ki is 0.4 µM.

`CN(C)C(c1ccccc1Br)C1CCCCC1(O)CCc1ccccc1.Cl` (stereo not drawn) [Example 3, 2-[(2-bromophenyl)dimethylaminomethyl]-1-phenethylcyclohexanol, hydrochloride]: the melting point lay in the range of 162 to 165 °C. For the same compound, in data set [1], the “Percentage inhibition” value is 91% and the inhibitory constant (Ki) was 1.7 µM.

As for `CN(C)C(c1ccccc1)C1CCCCC1(O)CCc1ccccc1Cl.Cl` (stereo not drawn) [Example 12, 1-[2-(2-chlorophenyl)ethyl]-2-(dimethylaminophenylmethyl)cyclohexanol, hydrochloride], the melting point came out at 152 °C. In data set [1], the “Percentage inhibition” value was found to be 85% and the Ki is 1.5 µM.

In turn, `CN(C)C(c1ccccc1)C1CCCCC1(O)CCc1ccccc1.Cl` (stereo not drawn) [Example 1, 2-(dimethylaminophenylmethyl)-1-phenethylcyclohexanol, hydrochloride] registered a melting point of 100 °C. In data set [1], the “Percentage inhibition” value is reported as 56% and the Ki was 3.8 µM.

In turn, `CN(C)C(c1ccccc1Cl)C1CCCCC1(O)CCc1ccc(F)cc1.Cl` (stereo not drawn) [Example 9, 2-[(2-chlorophenyl)dimethylaminomethyl]-1-[2-(4-fluorophenyl)ethyl]cyclohexanol, hydrochloride] registered a melting point of 170 °C. In addition, in data set [1], the “Percentage inhibition” value was determined as 67% and the Ki is 3.8 µM.

Compound `Cc1ccccc1C(C1CCCCC1(O)CCc1ccccc1)N(C)C.Cl` (stereo not drawn) [Example 5, 2-(dimethylamino-o-tolylmethyl)-1-phenethylcyclohexanol, hydrochloride] registered a melting point of 187 to 188 °C. For the same compound, in data set [1], the “Percentage inhibition” value is listed as 93% and the Ki is 1.3 µM.

Regarding `CN(C)C(c1ccccc1Cl)C1CCCCC1(O)CCc1ccccc1.Cl` (stereo not drawn) [Example 2, 2-[(2-chlorophenyl)dimethylaminomethyl]-1-phenethylcyclohexanol, hydrochloride], the melting point was found to be 110 °C. Moreover, in data set [1], the “Percentage inhibition” value is reported as 95% and the Ki was 1.7 µM.

Source of the values: patent US6784175B2, “Use of substituted 1-amino-5-phenylpentane-3-ol and/or 1-amino-6-phenylhexane-3-ol compounds as medicaments” (Gruenenthal GmbH, priority 2000, dated 2004).
